The target in experiment [1] is T1, recombinant human vasopressin V2 receptor (Homo sapiens, UniProt P30518). As to the kind of experiment: cell-based or functional assay.
Experiment [2] addresses T2, recombinant human vasopressin V1B receptor (human) (UniProt P47901).
T2 sequence (looked up): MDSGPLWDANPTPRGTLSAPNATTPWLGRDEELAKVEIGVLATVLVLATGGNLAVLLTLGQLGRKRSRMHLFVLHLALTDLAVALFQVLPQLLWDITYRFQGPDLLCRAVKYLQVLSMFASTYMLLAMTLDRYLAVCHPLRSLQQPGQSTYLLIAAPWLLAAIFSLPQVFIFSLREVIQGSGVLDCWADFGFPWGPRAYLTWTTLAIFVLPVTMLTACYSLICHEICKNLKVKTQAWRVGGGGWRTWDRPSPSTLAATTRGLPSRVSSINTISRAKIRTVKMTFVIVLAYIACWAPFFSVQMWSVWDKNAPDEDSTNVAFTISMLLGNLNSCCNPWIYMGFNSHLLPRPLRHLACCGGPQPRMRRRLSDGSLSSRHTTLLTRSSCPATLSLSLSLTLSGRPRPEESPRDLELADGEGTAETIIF
The experiment in a line: cell-based or functional assay.

Experiment [3] deals with T3, recombinant human oxytocin receptor (Homo sapiens, UniProt P30559). As to the kind of experiment: cell-based or functional assay.
Experiment [4] addresses T4, recombinant human vasopressin V1A receptor (Homo sapiens, UniProt P37288). The experiment in a line: cell-based or functional assay.
The target of experiment [5] is T4, recombinant human vasopressin V1A receptor. The experiment in a line: cell-based.
For experiment [6], the target named is T5, recombinant human vasopressin V1B receptor (Homo sapiens, UniProt P47901).
Experiment [7] addresses T1, recombinant human vasopressin V2 receptor. The experiment in a line: cell-based.
Experiment [8] concerns tube foot and esophageal tissues isolated from Echinus esculentus. The note with it: cited from earlier work.
For experiment [9], the target named is T3, recombinant human oxytocin receptor. The experiment in a line: cell-based.
Experiment [10] deals with T5, recombinant human vasopressin V1B receptor. The experiment in a line: cell-based.

Where a SMILES comes first, the peptide text is derived from it. Bridges are numbered along the chain shown (N, C = ends).

T4 sequence (P37288 whole entry): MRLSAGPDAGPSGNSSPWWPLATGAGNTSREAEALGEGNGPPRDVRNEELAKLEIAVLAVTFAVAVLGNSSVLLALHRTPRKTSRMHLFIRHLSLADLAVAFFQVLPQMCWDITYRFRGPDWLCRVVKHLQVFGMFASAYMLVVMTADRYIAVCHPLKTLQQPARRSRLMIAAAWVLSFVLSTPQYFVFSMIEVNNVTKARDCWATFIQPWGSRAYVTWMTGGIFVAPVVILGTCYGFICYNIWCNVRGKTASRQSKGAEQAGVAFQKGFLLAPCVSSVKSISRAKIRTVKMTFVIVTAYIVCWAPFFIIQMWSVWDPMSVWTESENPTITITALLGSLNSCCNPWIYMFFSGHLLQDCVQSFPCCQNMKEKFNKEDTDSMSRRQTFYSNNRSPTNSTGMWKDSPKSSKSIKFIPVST
T3 sequence (P30559 whole entry): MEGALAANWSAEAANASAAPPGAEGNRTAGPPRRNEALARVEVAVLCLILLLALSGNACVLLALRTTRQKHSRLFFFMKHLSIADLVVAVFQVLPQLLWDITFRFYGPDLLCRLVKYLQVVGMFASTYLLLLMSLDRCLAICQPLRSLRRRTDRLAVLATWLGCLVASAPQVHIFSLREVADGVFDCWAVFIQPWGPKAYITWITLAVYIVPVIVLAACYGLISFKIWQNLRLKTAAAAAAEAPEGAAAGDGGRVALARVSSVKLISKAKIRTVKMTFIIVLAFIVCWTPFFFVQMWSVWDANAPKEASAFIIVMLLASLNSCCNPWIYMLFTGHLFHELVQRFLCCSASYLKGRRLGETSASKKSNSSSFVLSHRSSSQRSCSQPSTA

For “Echinotocin (Strongylocentrotus purpuratus-derived peptide, SEQ ID NO: 1)”, the receptor activation: intracellular cAMP accumulation (HTRF), relative to 1 nM vasopressin in experiment [1] is 3.68 nM. Also, in experiment [2], the receptor activation: increase of intracellular calcium concentration (calcium dye fluorescence imaging), relative to 0.1 µM vasopressin came out at 49.1 nM. Further, in experiment [3], the receptor inhibition: intracellular calcium response to 30 nM oxytocin (calcium dye fluorescence imaging) came out at 1.7 UM. In [4], the receptor inhibition: intracellular calcium response to 10 nM vasopressin (calcium dye fluorescence imaging) turned out to be 1 µM.
Take `CC[C@H](C)[C@@H]1NC(=O)[C@H](Cc2ccccc2)NC(=O)[C@@H](N)CSSC[C@@H](C(=O)N2CCC[C@H]2C(=O)N[C@@H](CCCCN)C(=O)NCC(N)=O)NC(=O)[C@H](CC(N)=O)NC(=O)[C@H](CO)NC1=O` [Echinotocin] (H-CFISNCPKG-NH2; disulfide 1-6; N-terminus assumed): the figures for the IC50 in experiment [5] and in experiment [9] were 1000 nM and 1700 nM, respectively. Further, the “receptor selectivity at appropriate concentration” value in experiment [6] is “selectively activates only the V1B receptor and has little effect on other receptors”. The EC50 turned out to be 3.68 nM in experiment [7] and 49.1 nM in experiment [10]. Further, the “contraction of isolated tube foot and esophageal tissues” value in experiment [8] is “effective in contracting tube foot and esophageal tissues”.

By IC50 is commonly meant the concentration at which inhibition is half-maximal. For orientation: EC50 means the midpoint of the concentration-response curve.

The values are drawn from patent publication US20250074939A1, “SEA URCHIN-DERIVED PEPTIDE AND USE THEREOF” (NATIONAL MARINE BIODIVERSITY INSTITUTE OF KOREA, priority 2021, published 2025).
